Experiment [1] concerns the target T1, Substance-K receptor (Homo sapiens) (UniProt P21452).
T1 sequence (whole entry): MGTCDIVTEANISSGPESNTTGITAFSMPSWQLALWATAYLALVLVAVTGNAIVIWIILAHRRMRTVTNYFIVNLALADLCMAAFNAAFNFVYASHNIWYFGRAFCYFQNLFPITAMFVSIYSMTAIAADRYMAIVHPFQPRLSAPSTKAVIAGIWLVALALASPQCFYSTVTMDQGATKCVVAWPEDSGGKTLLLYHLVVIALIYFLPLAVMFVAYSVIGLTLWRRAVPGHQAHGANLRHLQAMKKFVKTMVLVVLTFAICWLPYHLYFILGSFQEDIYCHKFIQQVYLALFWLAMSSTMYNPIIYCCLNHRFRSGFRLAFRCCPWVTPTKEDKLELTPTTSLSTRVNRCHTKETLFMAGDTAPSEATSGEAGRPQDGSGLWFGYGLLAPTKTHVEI
In words: Displacement of [125I]neurokinin A from human tachykinin NK2 receptor expressed in CHO cell at 10 uM. Format: cell-based. (In a radioligand displacement assay an active substance lowers the binding of a labelled ligand.)

For experiment [2], the target named is Integrin alpha-4/beta-1 (Homo sapiens) (UniProt P05556+P13612). In words: Inhibition of integrin alpha-4-beta-1-mediated U937 and Jurkat cell adhesion to VCAM-1 coated surface up to 100 uM by BCECF fluorescence measurement. Format: cell-based.

A word on the inhibition: it is the share of the control response that was lost under treatment.

Each structure is given as a SMILES string. Active and inactive are the calls of the source. The calls are words filed in the database; no cut-off is given here.

As to `COC(=O)C1=C2C[C@@H](C(=O)OCc3ccccc3)NC(=O)[C@H](C)NC(=O)[C@H](Cc3ccccc3)NC(=O)[C@H](Cc3ccccc3)NC(=O)[C@H](Cc3ccccc3)NC(=O)[C@H](C)NC(=O)[C@H]3O[C@H](O2)[C@H](S1)[C@@H](O)[C@@H]3O`, the inhibition in experiment [1] is 25%.

Take `CC[C@H](C)[C@@H]1NC(=O)[C@H](CCC(=O)O)NC(=O)[C@H]2O[C@@H]3OC(=C(C(=O)OC)S[C@@H]3[C@@H](O)[C@@H]2O)C[C@@H](C(=O)O)NC(=O)[C@H](C(C)C)NC(=O)[C@H](CC(=O)O)NC(=O)[C@H](CC(C)C)NC1=O`: in experiment [2], the inhibition result is “inactive”.

The record behind these values is ChEMBL document CHEMBL1151907, “Cyclic glycopeptidomimetics through a versatile sugar-based scaffold” (Bioorg Med Chem Lett, 2009).
